Reference: paper PMC6627698, “Redesigning Arenicin-1, an Antimicrobial Peptide from the Marine Polychaeta Arenicola marina, by Strand Rearrangement or Branching, Substitution of Specific Residues, and Backbone Linearization or Cyclization” (Marine Drugs, 2019)
Residues, ends and D or L forms follow the SMILES beside them. *: point of attachment. Cam = NC(=O)C*

How the values were obtained:
E. coli M15 = assay type: cell-based, Escherichia coli; settings: M15, 18 h
Text: (§1) E. coli ML35p, Listeria monocytogenes EGD, methicillin-resistant Staphylococcus aureus (MRSA) ATCC 33591 were kindly provided by Prof. Robert Lehrer (University of California, Los Angeles, CA, USA); E. coli ATCC 25922, E. coli M15, Pseudomonas aeruginosa ATCC 27853, S. aureus ATCC 25923 were provided by Dr. Elena Ermolenko (Institute of Experimental Medicine, St-Petersburg, Russia); drug-resistant clinical isolates were provided by Prof. Gennadiy Afinogenov (Saint Petersburg State University, Russia); S. aureus 710A has been described previously. The following clinical isolates of bacteria were used: P.s aeruginosa resistant to aztreonam, ceftazidime, cefotaxime (obtained from the urine of a patient with cystitis), Acinetobacter baumannii resistant to meropenem (from an infected wound); Staphylococcus intermedius (from an infected wound caused by a dog bite) resistant to ciprofloxacin, cefuroxime, clindamycin, erythromycin, rifampin, gentamicin, benzylpenicillin, oxacillin.
(§2) This assay was applied to determine the MIC, according to the guidelines of the Clinical and Laboratory Standards Institute, using Mueller Hinton (MH) Broth. We prepared 2x stocks of peptides and serially diluted them in sterile PBS instead of Mueller Hinton Broth, so that the treatment of the bacteria with the peptides was carried out in a medium containing 50% of MH and 50% of PBS, as described. The overnight cultures of each strain were transferred to fresh MH media and further incubated to obtain a mid-logarithmic-growth-phase culture of bacteria. The absorbance of each bacterial suspension was measured at 620 nm, and bacteria were then diluted to approximately 2 × 10^5 CFU/mL. Then, 50 µL of the suspensions were mixed with 50 µL of the peptide dilutions in the wells of a microtiter plate (pre-treated for 1 h at 37 °C with 0.2% bovine serum albumin (BSA) in water, sterilized by filtration, to diminish the non-specific binding of the peptides to the plastic surfaces).

E. coli ATCC 25922 = assay type: cell-based, Escherichia coli; settings: ATCC 25922, 18 h
Text: as §1, §2

[1] = system: set of Gram-negative and Gram-positive bacteria, including drug-resistant clinical isolates; assay type: cell-based; settings: 12 strains; median MICs used; MIC > 16 µM taken as 32 µM
Experimental: To obtain a global assessment of the effect on antimicrobial activity, the geometric mean of the MIC (G-MIC) was calculated, and from this, the overall improvement or impoverishment with respect to arenicin-1. In general, inverting the symmetry or decreasing the charge had detrimental effects.
The overall activity against a set of tested bacterial strains was determined by way of the commonly used geometric mean of measured MIC values. […] At the same time, the geometric mean can still discriminate antimicrobial agents showing minor variations in activity; in other words, it has a better “resolution” than the median MIC (MIC50). Some mathematical basics for choosing the geometric mean for antimicrobial activity comparison are further discussed in the Supplementary Chapter S3.

[2] = system: Pseudomonas aeruginosa ATCC 27853; assay type: cell-based; settings: ATCC 27853, 18 h
Text: as §1, §2

Escherichia coli ML35p = assay type: cell-based; settings: broth microdilution, 50% Mueller Hinton broth / 50% PBS, 18 h at 37 °C, median of 3–5 experiments in triplicates
Text: as §1, §2

[3] = system: Staphylococcus aureus 710A; assay type: cell-based; settings: 18 h
Text: as §1, §2

[4] = system: Listeria monocytogenes EGD; assay type: cell-based; settings: 18 h
Text: as §1, §2

P. aeruginosa c.i. = assay type: cell-based, Pseudomonas aeruginosa; settings: 18 h
Text: as §1, §2

[5] = system: human erythroleukemia K-562 cells; assay type: cell-based; settings: 24 h
Experimental: The standard MTT ((3-(4,5-Dimethylthiazol-2-yl)-2,5-diphenyltetrazolium bromide) test was used for the examination of the cytotoxic activity of AMPs towards human erithroleukemia cells K-562. The cells were purchased from Biolot (Saint Petersburg, Russia) and were grown in RPMI 1640 medium (Biolot, Saint Petersburg, Russia) supplemented with glutamine and 10% FCS. Before the experiment, the culturing medium was replaced with serum-free RPMI 1640. Serial dilutions of the peptides in RPMI were plated in sterile 96-well microplates, and the target cells were dispensed to the microplates (10^5 cells/well in RPMI 1640). The plates were incubated for 24 h at 37 °C under 5% CO2. Cell-free media and cells incubated without peptides served as controls. Four hours before the incubation ended, MTT in PBS (5 mg/mL) was added to each well. After the incubation was stopped by adding isopropanol/ 0.04 M HCl, the optical density was measured at 540 nm, subtracting the background absorbance at 690 nm. Toxicity was determined by nonlinear regression analysis of the corresponding dose–response curves using the Sigma Plot 11 program to calculate the IC50 values (the concentration of the test substance that reduced the OD540 capacity by 50%).

S. aureus c.i. = assay type: cell-based, Staphylococcus aureus; settings: 18 h
Text: as §1, §2

MRSA ATCC 33591 = assay type: cell-based, Staphylococcus aureus; settings: ATCC 33591, 18 h
Text: as §1, §2

S. aureus ATCC 25923 = assay type: cell-based, Staphylococcus aureus; settings: ATCC 25923, 18 h
Text: as §1, §2

[6] = system: Staphylococcus intermidius; assay type: cell-based, Staphylococcus intermedius; settings: 18 h
Text: as §1, §2

[7] = system: Acinetobacter baumanii c.i.; assay type: cell-based, Acinetobacter baumannii; settings: 18 h
Text: as §1, §2

CC(C)C[C@H](NC(=O)[C@@H](NC(=O)CNC(=O)[C@H](CCCNC(=N)N)NC(=O)[C@@H](NC(=O)[C@H](CCCNC(=N)N)NC(=O)[C@@H](NC(=O)[C@H](Cc1ccc(O)cc1)NC(=O)[C@H](C)NC(=O)[C@H](Cc1ccc(O)cc1)NC(=O)[C@@H](NC(=O)[C@H](CSCC(N)=O)NC(=O)[C@H](Cc1c[nH]c2ccccc12)NC(=O)[C@@H](N)CCCNC(=N)N)C(C)C)C(C)C)C(C)C)C(C)C)C(=O)N[C@H](C(=O)N[C@@H](CCCNC(=N)N)C(=O)N[C@@H](Cc1ccc(O)cc1)C(=O)N[C@@H](CCCNC(=N)N)C(=O)N[C@@H](CCCNC(=N)N)C(=O)N[C@@H](CSCC(N)=O)C(=O)N[C@@H](Cc1c[nH]c2ccccc12)C(=O)O)C(C)C [ARlin] (H-RWC(Cam)VYAYVRVRGVLVRYRRC(Cam)W-OH; N-terminus assumed)
Minimal Inhibitory Concentrations (MIC) (E. coli M15): 2 µM | Minimal Inhibitory Concentrations (MIC) (E. coli ATCC 25922): 2 µM | G-MIC (geometric mean of all determined MICs) [1]: 3.1 µM | Minimal Inhibitory Concentrations (MIC) [2]: 2 µM | Minimal Inhibitory Concentrations (MIC) (Escherichia coli ML35p): 1 to 2 µM | Minimal Inhibitory Concentrations (MIC) [3]: 2 µM | Minimal Inhibitory Concentrations (MIC) [4]: 2 µM | Minimal Inhibitory Concentrations (MIC) (P. aeruginosa c.i.): 4 to 8 µM | IC50 [5]: > 40 µM | Minimal Inhibitory Concentrations (MIC) (S. aureus c.i.): 8 to 16 µM | Minimal Inhibitory Concentrations (MIC) (MRSA ATCC 33591): 4 µM | Minimal Inhibitory Concentrations (MIC) (S. aureus ATCC 25923): 2 µM | Minimal Inhibitory Concentrations (MIC) [6]: 8 µM | Minimal Inhibitory Concentrations (MIC) [7]: 4 µM

CC(C)[C@@H]1NC(=O)[C@H](CCCNC(=N)N)NC(=O)[C@H](C(C)C)NC(=O)[C@H](Cc2ccc(O)cc2)NC(=O)[C@H](C)NC(=O)[C@H](Cc2ccc(O)cc2)NC(=O)[C@H](C(C)C)NC(=O)[C@@H](NC(=O)[C@H](Cc2c[nH]c3ccccc23)NC(=O)[C@@H](N)CCCNC(=N)N)CSSC[C@H](NC(=O)[C@H](Cc2c[nH]c3ccccc23)NC(=O)[C@@H](N)CCCNC(=N)N)C(=O)N[C@@H](C(C)C)C(=O)N[C@@H](Cc2ccc(O)cc2)C(=O)N[C@@H](C)C(=O)N[C@@H](Cc2ccc(O)cc2)C(=O)N[C@@H](C(C)C)C(=O)N[C@@H](CCCNC(=N)N)C(=O)N[C@@H](C(C)C)C(=O)N[C@H](C(=O)N[C@@H](CN)C(N)=O)CCCNC1=O [ARs-N-B] (HELM PEPTIDE1{R.W.C.V.Y.A.Y.V.R.V.[Orn].[NC[C@H](N[*:1])C(=O)[*:2]].[am]}|PEPTIDE2{R.W.C.V.Y.A.Y.V.R.V}$PEPTIDE1,PEPTIDE2,3:R3-3:R3|PEPTIDE1,PEPTIDE2,11:R3-10:R2$$$V2.0)
Minimal Inhibitory Concentrations (MIC) (E. coli M15): 4 µM | Minimal Inhibitory Concentrations (MIC) (E. coli ATCC 25922): 8 µM | G-MIC (geometric mean of all determined MICs) [1]: 5.9 µM | Minimal Inhibitory Concentrations (MIC) [2]: 2 µM | Minimal Inhibitory Concentrations (MIC) (Escherichia coli ML35p): 4 µM | Minimal Inhibitory Concentrations (MIC) [3]: 8 µM | Minimal Inhibitory Concentrations (MIC) [4]: 2 to 4 µM | Minimal Inhibitory Concentrations (MIC) (P. aeruginosa c.i.): 16 µM | IC50 [5]: 35.1 µM | Minimal Inhibitory Concentrations (MIC) (S. aureus c.i.): 8 µM | Minimal Inhibitory Concentrations (MIC) (MRSA ATCC 33591): 8 µM | Minimal Inhibitory Concentrations (MIC) (S. aureus ATCC 25923): 8 µM | Minimal Inhibitory Concentrations (MIC) [6]: 8 µM | Minimal Inhibitory Concentrations (MIC) [7]: 4 µM

CC(C)C[C@@H]1NC(=O)[C@H](C(C)C)NC(=O)CNC(=O)[C@H](CCCNC(=N)N)NC(=O)[C@H](C(C)C)NC(=O)[C@H](CCCNC(=N)N)NC(=O)[C@H](C(C)C)NC(=O)[C@H](CCCNC(=N)N)NC(=O)[C@H](Cc2ccc(O)cc2)NC(=O)[C@H](CCCNC(=N)N)NC(=O)[C@H](CCCNC(=N)N)NC(=O)[C@@H](NC(=O)[C@H](Cc2c[nH]c3ccccc23)NC(=O)[C@@H](N)CCCNC(=N)N)CSSC[C@@H](C(=O)N[C@@H](Cc2c[nH]c3ccccc23)C(=O)O)NC(=O)[C@H](C(C)C)NC(=O)[C@H](Cc2ccc(O)cc2)NC(=O)[C@H](C)NC(=O)[C@H](Cc2ccc(O)cc2)NC(=O)[C@H](C(C)C)NC1=O [ARin-s] (HELM PEPTIDE1{R.W.C.R.R.Y.R.V.R.V.R.G.V.L.V.Y.A.Y.V.C.W}$PEPTIDE1,PEPTIDE1,3:R3-20:R3$$$V2.0; N-terminus assumed)
Minimal Inhibitory Concentrations (MIC) (E. coli M15): 8 µM | Minimal Inhibitory Concentrations (MIC) (E. coli ATCC 25922): 8 µM | G-MIC (geometric mean of all determined MICs) [1]: ≥12.8 µM | Minimal Inhibitory Concentrations (MIC) [2]: 4 to 8 µM | Minimal Inhibitory Concentrations (MIC) (Escherichia coli ML35p): 4 to 8 µM | Minimal Inhibitory Concentrations (MIC) [3]: 16 µM | Minimal Inhibitory Concentrations (MIC) [4]: 2 µM | Minimal Inhibitory Concentrations (MIC) (P. aeruginosa c.i.): >16 µM | IC50 [5]: 37.7 µM | Minimal Inhibitory Concentrations (MIC) (S. aureus c.i.): >16 µM | Minimal Inhibitory Concentrations (MIC) (MRSA ATCC 33591): >16 µM | Minimal Inhibitory Concentrations (MIC) (S. aureus ATCC 25923): 16 µM | Minimal Inhibitory Concentrations (MIC) [6]: >16 µM | Minimal Inhibitory Concentrations (MIC) [7]: 16 µM

CC(C)[C@@H]1NC(=O)CNC(=O)[C@H](CCCNC(=N)N)NC(=O)[C@H](C(C)C)NC(=O)[C@H](CCCNC(=N)N)NC(=O)[C@H](C(C)C)NC(=O)[C@H](Cc2ccc(O)cc2)NC(=O)[C@H](C)NC(=O)[C@H](Cc2ccc(O)cc2)NC(=O)[C@H](C(C)C)NC(=O)[C@@H](NC(=O)[C@H](Cc2c[nH]c3ccccc23)NC(=O)[C@H](CCCNC(=N)N)NC(=O)[C@@H](N)CCCNC(=N)N)CSSC[C@@H](C(=O)N[C@@H](Cc2c[nH]c3ccccc23)C(=O)O)NC(=O)[C@H](C(C)C)NC(=O)[C@H](Cc2ccc(O)cc2)NC(=O)[C@H](C)NC(=O)[C@H](Cc2ccc(O)cc2)NC(=O)[C@H](C(C)C)NC(=O)[C@H](CCCNC(=N)N)NC1=O [ARs-N] (HELM PEPTIDE1{R.R.W.C.V.Y.A.Y.V.R.V.R.G.V.R.V.Y.A.Y.V.C.W}$PEPTIDE1,PEPTIDE1,4:R3-21:R3$$$V2.0; N-terminus assumed)
Minimal Inhibitory Concentrations (MIC) (E. coli M15): >16 µM | Minimal Inhibitory Concentrations (MIC) (E. coli ATCC 25922): >16 µM | G-MIC (geometric mean of all determined MICs) [1]: ≥26.9 µM | Minimal Inhibitory Concentrations (MIC) [2]: >16 µM | Minimal Inhibitory Concentrations (MIC) (Escherichia coli ML35p): 16 µM | Minimal Inhibitory Concentrations (MIC) [3]: >16 µM | Minimal Inhibitory Concentrations (MIC) [4]: 8 µM | Minimal Inhibitory Concentrations (MIC) (P. aeruginosa c.i.): >16 µM | IC50 [5]: 18 µM | Minimal Inhibitory Concentrations (MIC) (S. aureus c.i.): >16 µM | Minimal Inhibitory Concentrations (MIC) (MRSA ATCC 33591): >16 µM | Minimal Inhibitory Concentrations (MIC) (S. aureus ATCC 25923): >16 µM | Minimal Inhibitory Concentrations (MIC) [6]: >16 µM | Minimal Inhibitory Concentrations (MIC) [7]: >16 µM
